In brackets after ≈: the same amount, converted by molar mass.
Experiment: Toxicity in Artemia salina after 24 hrs
Type: organism-based
Conditions: in vivo

SMILES	LC50 at 24 h
COc1cc(C=O)ccc1OC/C=C(\C)CCC=C(C)C [GERANYLOXYVANILLIN]	85.8 µg/mL (≈ 298 µM)
C=C[C@@H](O)C#CC#C[C@@H](O)/C=C\CCCCCCC [FALCARINDIOL]	3.32 µg/mL (≈ 12.8 µM)
C=C[C@H](O)C#CC#CC/C=C\CCCCCCC [FALCARINOL]	0.67 µg/mL (≈ 2.74 µM)

From ChEMBL document CHEMBL1147372, “Bioactive metabolites from Sicilian marine fennel, Crithmum maritimum” (J Nat Prod, 1993)
